The test system of this series is CYP1A2. The series can be described thus: MEROD assay in live Hepa1c1c7 cells preincubated with test compound (CYP1A2 induction). Format: cell-based, mouse. The source says:
FIG. 1 illustrates how caffeine is primarily metabolized to paraxanthine via CYP1A2 enzyme in a human, according to some embodiments. The MEROD (methoxyresorufin-O-demethylase) assay measures the activity of the enzyme (CYP1A2) that converts methoxyresorufin (probe substrate) to resorufin (demethylation) in the presence of NADPH. The resulting resorufin concentration can be measured using a fluorescence reader by setting the excitation and emission wavelengths at 544 and 590 nm, respectively.
For MEROD assay in live cells, Hepa1c1c7 cells were cultured in either 6-well or 24-well-plates. For the 24-well plate experiment, after confluent cells were incubated for approximately 20 hours with either resorufin, nitro-resorufin, chloro-resorufin, 3-MC or DMSO (in triplicates), culture media was removed and 180 μL fresh culture media containing […] methoxyresorufin was added per well. After 1 hour incubation at 37° C., 100 μL aliquot was taken from each well and the formation of resorufin was measured by fluorescence. […] After 5 hours incubation at 37° C., 100 μL aliquot was taken from each well, centrifuged at 12,000 g at RT for ˜5 min and the supernatants were placed into wells of a 96-well fluorescence plate and the formation of resorufin was measured by fluorescence.

From patent publication US20120322812A1, “RUTAECARPINE DERIVATIVES FOR TREATING INSOMNIA” (priority 2011, published 2012) come the findings set out here.

For the compound `O=c1c2ccc(Cl)cc2nc2n1CCc1c-2[nH]c2ccccc12` [chloro-rutaecarpine], the “formation of resorufin in live cells (MEROD assay)” value is “significant difference” (Hepa1c1c7 cells incubated with 2 μM compound, compared to DMSO, 24-well and 6-well plate studies); “no marked difference” (Hepa1c1c7 cells incubated with 10 μM compound).
